Measured values taken from paper PMC11747885, “Potent inhibitors of the human RNA ligase Rlig1 highlights its role in RNA integrity maintenance under oxidative cellular stress” (Chemical Science, 2025).
Values joined by “and” are separate entries in the source; they are usually repeats but may differ in a detail not shown here. Equal values may be shown once. Read-outs that look alike come from different tables or passages of the source.

Key:
Rlig1-AMP = molecular target: T1, Rlig1-AMP (Homo sapiens, UniProt Q8N999); assay: FRET-based high-throughput screening of inhibitors for Rlig1-AMP; type: biochemical; settings: for 1-D Distance: difference of raw data w/o and w enzyme; for Raw data [w Enyzm]: with enzyme; for Raw data [w/o Enzym]: without enzyme
T1 construct: made in house; host or cells: E. coli BL21 (DE3), pET15b-Rlig1
T1 sequence (Q8N999 whole entry): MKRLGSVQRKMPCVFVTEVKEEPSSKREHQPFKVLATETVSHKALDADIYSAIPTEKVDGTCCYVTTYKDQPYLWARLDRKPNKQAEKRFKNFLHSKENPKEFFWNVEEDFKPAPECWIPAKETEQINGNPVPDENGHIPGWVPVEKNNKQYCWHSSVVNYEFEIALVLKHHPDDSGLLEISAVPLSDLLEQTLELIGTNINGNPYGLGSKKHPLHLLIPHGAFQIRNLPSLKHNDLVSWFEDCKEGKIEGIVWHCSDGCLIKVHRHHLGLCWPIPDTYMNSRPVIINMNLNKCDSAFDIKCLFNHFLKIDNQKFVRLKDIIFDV

Hsp90-TPR2A = molecular target: Hsp90-TPR2A; set-up: method as in MedChemExpress; settings: interaction of Hsp90-TPR2A; ref MedChemExpress; cited from earlier work
G9a = test system: G9a; set-up: method as in MedChemExpress [1]; settings: ref MedChemExpress [1]; cited from earlier work
NO production = test system: NO production; set-up: method as in MedChemExpress; settings: ref MedChemExpress; cited from earlier work
[1] = DMSO; ultrasonic/warming; ref MedChemExpress; cited from earlier work
EGFR = test system: EGFR; set-up: method as in MedChemExpress; settings: ref MedChemExpress; cited from earlier work
ERβ = test system: ERβ; set-up: method as in MedChemExpress; settings: ref MedChemExpress; read-out: IC50, binding to ERβ; cited from earlier work
factor IXaβ (FIXa) = molecular target: factor IXaβ (FIXa); set-up: method as in MedChemExpress [1][2][3]; settings: ref MedChemExpress [1][2][3]; cited from earlier work
Dengue Fever virus = test system: Dengue Fever virus; set-up: method as in MedChemExpress; settings: ref MedChemExpress; cited from earlier work
HCV = test system: HCV; set-up: method as in MedChemExpress; settings: ref MedChemExpress; cited from earlier work
Rift Valley virus = settings: cited from earlier work
Ebola virus = settings: cited from earlier work
HIV-1 = settings: ref MedChemExpress; cited from earlier work
[2] = molecular target: phosphodiesterase 3 (PDE3); set-up: method as in MedChemExpress; settings: ref MedChemExpress; cited from earlier work
[3] = molecular target: phosphodiesterase 5 (PDE5); set-up: method as in MedChemExpress; settings: ref MedChemExpress; cited from earlier work
[4] = molecular target: phosphodiesterase 4 (PDE4); set-up: method as in MedChemExpress; settings: ref MedChemExpress; cited from earlier work
[5] = molecular target: Acyl-coenzyme A: cholesterol acyltransferase (ACAT); set-up: method as in MedChemExpress [1]; settings: rat liver microsomal ACAT; ref MedChemExpress [1]; cited from earlier work
[6] = in DMSO; ref MedChemExpress; cited from earlier work
Cdc25C = test system: Cdc25C; set-up: method as in MedChemExpress [1]; settings: ref MedChemExpress [1]; cited from earlier work
Cdc25B = test system: Cdc25B; set-up: method as in MedChemExpress [1]; settings: ref MedChemExpress [1]; cited from earlier work
Cdc25A = test system: Cdc25A; set-up: method as in MedChemExpress [1]; settings: ref MedChemExpress [1]; cited from earlier work
[7] = set-up: method as in MedChemExpress [1]; settings: ref MedChemExpress [1]; read-out: IC50 DPPH radical scavenging; cited from earlier work
[8] = set-up: method as in MedChemExpress [1]; settings: ref MedChemExpress [1]; read-out: IC50 superoxide anion scavenging; cited from earlier work
TLR4 signaling = test system: TLR4 signaling; set-up: method as in MedChemExpress [1][2][3]; settings: ref MedChemExpress [1][2][3]; cited from earlier work
H+/K+-ATPases = test system: H+/K+-ATPases; set-up: method as in MedChemExpress [1]; settings: porcine, canine, and human, in vitro; ref MedChemExpress [1]; cited from earlier work
proton transport = test system: proton transport; set-up: method as in MedChemExpress; settings: ref MedChemExpress; read-out: EC50, inhibition of proton transport; cited from earlier work
ErbB2 = test system: ErbB2; set-up: method as in MedChemExpress; settings: ref MedChemExpress, cited from earlier work
TrKA = test system: TrKA; set-up: method as in MedChemExpress; settings: ref MedChemExpress; read-out: IC50, TrKA phosphorylation; cited from earlier work
chymotrypsin = molecular target: chymotrypsin; set-up: method as in MedChemExpress; settings: ref MedChemExpress; cited from earlier work
[9] = molecular target: Insulin-like Growth Factor 1 Receptor (IGF1R); set-up: method as in MedChemExpress; settings: ref MedChemExpress; cited from earlier work
NTPDase 3 = molecular target: NTPDase 3; set-up: method as in MedChemExpress; settings: ref MedChemExpress; cited from earlier work
NTPDase 2 = molecular target: NTPDase 2; set-up: method as in MedChemExpress; settings: ref MedChemExpress; cited from earlier work
NTPDase 1 (CD39) = molecular target: NTPDase 1 (CD39); set-up: method as in MedChemExpress; settings: ref MedChemExpress; cited from earlier work
[10] = HTS hits, normalized value (npi)
[11] = sheet HTS hits, MedChemExpress library
[12] = HTS hits, normalised value of 1-D Distance

Row | Molecule | 1-D Distance (Rlig1-AMP; HTS hits) | Raw data [w Enyzm] (Rlig1-AMP; HTS hits) | Raw data [w/o Enzym] (Rlig1-AMP; HTS hits) | 1-D Distance (Rlig1-AMP; sheet HTS hits) | Raw data [w Enyzm] (Rlig1-AMP; sheet HTS hits) | Raw data [w/o Enzym] (Rlig1-AMP; sheet HTS hits) | also measured
1 | Cn1nc(-c2ccccc2)nc2c(=O)n(C)c(=O)nc1-2 [3-Phenyltoxoflavin] | 2083 | 15668 | 17751 |  |  |  | 1-D Distance.npi (Rlig1-AMP; [10]): 71.558; Kd (Hsp90-TPR2A): 585 nM
2 | COc1cc2c(NCC3CCN(C)CC3)cc(-c3ccc(C)o3)nc2cc1OCCCN1CCCC1.Cl.Cl.Cl [CM-579 trihydrochloride] |  |  |  | 1286 | 6218 | 7504 | 1-D Distance.npi (Rlig1-AMP; [11]): 80.8725; IC50 (G9a): […]
3 | CC(/C=C/C=C(\C)C(=O)O[C@@H]1O[C@H](CO)[C@@H](O)[C@H](O)[C@H]1O)=C\C=C\C=C(C)\C=C\C=C(/C)C(=O)O[C@@H]1O[C@H](CO[C@@H]2O[C@H](CO)[C@@H](O)[C@H](O)[C@H]2O)[C@@H](O)[C@H](O)[C@H]1O [Crocin II] | 1772 | 3357 | 5129 |  |  |  | 1-D Distance.npi (Rlig1-AMP; [12]): 72.9439; IC50 (NO production): 31100 nM; solubility, DMSO [1]: 25 mg/mL and 30.68 mM
4 | OC[C@H]1O[C@@H](Oc2cc3c(O)cc(O)cc3[o+]c2-c2cc(O)c(O)c(O)c2)[C@H](O)[C@@H](O)[C@@H]1O.[Cl-] [Delphinidin 3-glucoside (chloride)] | 1749 | 3316 | 5065 |  |  |  | 1-D Distance.npi (Rlig1-AMP; [12]): 73.356; IC50 (EGFR): 2370 nM; IC50 (ERβ): 9700 nM
5 | CN1CCc2nc(C(=O)N[C@@H]3C[C@@H](C(=O)N(C)C)CC[C@@H]3NC(=O)C(=O)Nc3ccc(Cl)cn3)sc2C1.Cc1ccc(S(=O)(=O)O)cc1.O [Edoxaban (tosylate monohydrate)] |  |  |  | 1653 | 9167 |  | 1-D Distance.npi (Rlig1-AMP; [11]): 77.5766; Ki (factor IXaβ (FIXa)): 41700 nM
6 | Cc1cc(NCCCN(C)C)c2ccc3c(ccc4c(NCCCN(C)C)cc(C)nc43)c2n1.Cl.Cl.Cl.Cl [FGI-106 (tetrahydrochloride)] | 429 | 7836 | 8265 |  |  |  | 1-D Distance.npi (Rlig1-AMP; [10]): 96.4905; EC50 (Dengue Fever virus): 400 to 900 nM; EC50 (HCV): 200 nM; EC50 (Rift Valley virus): 800 nM; EC50 (Ebola virus): 100 nM; EC50 (HIV-1): 150 nM
7 | Cl.O=C1NCC2(CCN(CCc3ccccc3)CC2)O1 [Fenspiride (hydrochloride)] | 1963 | 8551 | 10514 |  |  |  | 1-D Distance.npi (Rlig1-AMP; [12]): 70.4519; -log IC50, PDE3 [2]: 3.44; -log IC50, PDE5 [3]: ~3.8; -log IC50, PDE4 [4]: 4.16
8 | CC(C)=CCc1cc([C@@H]2CC(=O)c3ccc(O)c(CC=C(C)C)c3O2)ccc1O [Glabrol] |  |  |  | 1660 | 8836 | 10496 | IC50 [5]: 24600 nM; solubility, DMSO [6]: DMSO : 100 mg/mL (254.78 mM; Need ultrasonic)
9 | Cc1ccc(Cn2cc(CNC3=C(Cl)C(=O)c4cccnc4C3=O)nn2)cc1 [M2N12] |  |  |  | 465 | 6859 | 7324 | IC50 (Cdc25C): 90 nM; 1-D Distance.npi (Rlig1-AMP; [11]): 96.6155; solubility, DMSO [6]: DMSO : 11.11 mg/mL (28.21 mM; ultrasonic and warming and heat to 67°C); IC50 (Cdc25B): 1390 nM; IC50 (Cdc25A): 530 nM
10 | O=C1O[C@@H]2[C@@H](O)[C@H](O)[C@@H](CO)O[C@H]2c2c1cc(O)c(O)c2O [Norbergenin] |  |  |  | 1829 | 9099 | 10928 | solubility, DMSO [6]: DMSO : 125 mg/mL (397.79 mM; Need ultrasonic); IC50 [7]: 13000 nM; IC50 [8]: 32000 nM
11 | C/C(=N\N=C(N)N)c1cc(NC(=O)CCCCCCCCC(=O)Nc2cc(/C(C)=N/N=C(N)N)cc(/C(C)=N/N=C(N)N)c2)cc(/C(C)=N/N=C(N)N)c1.Cl.Cl.Cl.Cl [Semapimod (tetrahydrochloride)] |  |  |  | 217 | 4067 | 3850 | 1-D Distance.npi (Rlig1-AMP; [11]): 101.371; IC50 (TLR4 signaling): ~300 nM
12 | Cc1nc2cc(C(=O)N(C)C)cc(O[C@H]3CCOc4cc(F)cc(F)c43)c2[nH]1 [Tegoprazan] |  |  |  | 1843 | 8992 | 10835 | solubility, DMSO [6]: DMSO : 100 mg/mL (258.14 mM; Need ultrasonic); IC50 (H+/K+-ATPases): 290 to 520 nM
13 | CCCCCCCCCCCCCCCC[N+](C)(C)CCN(Cc1ccc(OC)cc1)c1ncccn1.[Br-] [Thonzonium (bromide)] | 365 | 4968 | 4603 |  |  |  | 1-D Distance.npi (Rlig1-AMP; [12]): 101.053; EC50 (proton transport): 69000 nM
14 | CC(C)(C)c1cc(/C=C(\C#N)C(N)=S)cc(C(C)(C)C)c1O [Tyrphostin AG 879] | 1883 | 2204 | 4087 |  |  |  | IC50 (ErbB2; ErbB2): 1000 nM; selectivity to ErbB2 than EGFR (ErbB2; ErbB2 vs EGFR): ≥ 500 fold; IC50 (TrKA): 10000 nM
15 | Aprotinin | 1367 | 37995 | 39362 |  |  |  | 1-D Distance.npi (Rlig1-AMP; [12]): 82.3934; Ki (chymotrypsin): 9 nM
16 | Indirubin Derivative E804 |  |  |  | 1070 | 1875 | 2945 | IC50 [9]: 650 nM; 1-D Distance.npi (Rlig1-AMP; [11]): 87.7994
17 | Sodium metatungstate | 673 | 16164 | 15491 |  |  |  | 1-D Distance.npi (Rlig1-AMP; [10]): 95.6511; Ki (NTPDase 3): 3260 nM; Ki (NTPDase 2): 28800 nM; Ki (NTPDase 1 (CD39)): 2580 nM
